# Measurements as given in patent US20230219904A1 (SYNGENTA CROP PROTECTION AG, priority 2020, published 2023).
# Assays:
# Type in all cases: in vivo
# Settings in all cases: evaluated after 13 days
# [1] = tested on: Echinochloa crus-galh (ECHCG); assay: Pre-emergence herbicidal glasshouse test (Table B1)
# Procedure, shortened: (§1)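 Five-point damage scores (1=0-19% through 5=80-100%) were recorded 13 days after spraying. Pre-emergence treatment came one day after sowing, post-emergence after 8 days; rate 500 g/h unless otherwise indicated.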
# Setaria faberi (SETFA) [2] = assay: as above
# Procedure, shortened: as §1
# [3] = tested on: Ipomoea hederacea (IPOHE); assay: as above
# Procedure, shortened: as §1
# [4] = tested on: Abutilon theophrasti (ABUTH); assay: as above
# Procedure, shortened: as §1
# [5] = tested on: Amaranthus retoflexus (AMARE); assay: as above
# Procedure, shortened: as §1
# [6] = tested on: Echinochloa crus-galh (ECHCG); assay: Post-emergence herbicidal glasshouse test (Table B1)
# Procedure, shortened: as §1
# Setaria faberi (SETFA) [7] = assay: as above
# Procedure, shortened: as §1
# [8] = tested on: Ipomoea hederacea (IPOHE); assay: as above
# Procedure, shortened: as §1
# [9] = tested on: Abutilon theophrasti (ABUTH); assay: as above
# Procedure, shortened: as §1
# [10] = tested on: Amaranthus retoflexus (AMARE); assay: as above
# Procedure, shortened: as §1
compound,measurement,setting,value
CCC(=O)Nc1c(OC(F)F)ccc(C(=O)Nc2nnnn2C)c1Cl [Compound 1.022],"PRE Application ECHCG, percentage damage on five-point scale",[1]; applied at 125 g/ha,5 (5=80-100%)
same,"PRE Application SETFA, percentage damage on five-point scale",Setaria faberi (SETFA) [2]; applied at 125 g/ha,5 (5=80-100%)
same,"PRE Application IPOHE, percentage damage on five-point scale",[3]; applied at 125 g/ha,4 (4=60-79%)
same,"PRE Application ABUTH, percentage damage on five-point scale",[4]; applied at 125 g/ha,5 (5=80-100%)
same,"PRE Application AMARE, percentage damage on five-point scale",[5]; applied at 125 g/ha,5 (5=80-100%)
same,"POST Application ECHCG, percentage damage on five-point scale",[6]; applied at 125 g/ha,5 (5=80-100%)
same,"POST Application SETFA, percentage damage on five-point scale",Setaria faberi (SETFA) [7]; applied at 125 g/ha,5 (5=80-100%)
same,"POST Application IPOHE, percentage damage on five-point scale",[8]; applied at 125 g/ha,4 (4=60-79%)
same,"POST Application ABUTH, percentage damage on five-point scale",[9]; applied at 125 g/ha,5 (5=80-100%)
same,"POST Application AMARE, percentage damage on five-point scale",[10]; applied at 125 g/ha,5 (5=80-100%)
Cn1nnnc1NC(=O)c1ccc(OC(F)F)c(N2CCCCC2=O)c1Cl [Compound 1.023],"PRE Application ECHCG, percentage damage on five-point scale",[1]; applied at 125 g/ha,5 (5=80-100%)
same,"PRE Application SETFA, percentage damage on five-point scale",Setaria faberi (SETFA) [2]; applied at 125 g/ha,5 (5=80-100%)
same,"PRE Application IPOHE, percentage damage on five-point scale",[3]; applied at 125 g/ha,2 (2=20-39%)
same,"PRE Application ABUTH, percentage damage on five-point scale",[4]; applied at 125 g/ha,5 (5=80-100%)
same,"PRE Application AMARE, percentage damage on five-point scale",[5]; applied at 125 g/ha,5 (5=80-100%)
same,"POST Application ECHCG, percentage damage on five-point scale",[6]; applied at 125 g/ha,5 (5=80-100%)
same,"POST Application SETFA, percentage damage on five-point scale",Setaria faberi (SETFA) [7]; applied at 125 g/ha,5 (5=80-100%)
same,"POST Application IPOHE, percentage damage on five-point scale",[8]; applied at 125 g/ha,5 (5=80-100%)
same,"POST Application ABUTH, percentage damage on five-point scale",[9]; applied at 125 g/ha,5 (5=80-100%)
same,"POST Application AMARE, percentage damage on five-point scale",[10]; applied at 125 g/ha,5 (5=80-100%)
CCC(=O)N(C)c1c(OC(F)F)ccc(C(=O)Nc2nnnn2C)c1Cl [Compound 1.024],"PRE Application ECHCG, percentage damage on five-point scale",[1]; applied at 125 g/ha,4 (4=60-79%)
same,"PRE Application SETFA, percentage damage on five-point scale",Setaria faberi (SETFA) [2]; applied at 125 g/ha,4 (4=60-79%)
same,"PRE Application IPOHE, percentage damage on five-point scale",[3]; applied at 125 g/ha,4 (4=60-79%)
same,"PRE Application ABUTH, percentage damage on five-point scale",[4]; applied at 125 g/ha,5 (5=80-100%)
same,"PRE Application AMARE, percentage damage on five-point scale",[5]; applied at 125 g/ha,5 (5=80-100%)
same,"POST Application ECHCG, percentage damage on five-point scale",[6]; applied at 125 g/ha,4 (4=60-79%)
same,"POST Application SETFA, percentage damage on five-point scale",Setaria faberi (SETFA) [7]; applied at 125 g/ha,4 (4=60-79%)
same,"POST Application IPOHE, percentage damage on five-point scale",[8]; applied at 125 g/ha,4 (4=60-79%)
same,"POST Application ABUTH, percentage damage on five-point scale",[9]; applied at 125 g/ha,4 (4=60-79%)
same,"POST Application AMARE, percentage damage on five-point scale",[10]; applied at 125 g/ha,3 (3=40-59%)
CC(F)C(=O)Nc1c(OC(F)F)ccc(C(=O)Nc2nnnn2C)c1Cl (stereo not shown) [Compound 1.025],"PRE Application ECHCG, percentage damage on five-point scale",[1]; applied at 125 g/ha,3 (3=40-59%)
same,"PRE Application SETFA, percentage damage on five-point scale",Setaria faberi (SETFA) [2]; applied at 125 g/ha,3 (3=40-59%)
same,"PRE Application IPOHE, percentage damage on five-point scale",[3]; applied at 125 g/ha,4 (4=60-79%)
same,"PRE Application ABUTH, percentage damage on five-point scale",[4]; applied at 125 g/ha,5 (5=80-100%)
same,"PRE Application AMARE, percentage damage on five-point scale",[5]; applied at 125 g/ha,5 (5=80-100%)
same,"POST Application ECHCG, percentage damage on five-point scale",[6]; applied at 125 g/ha,5 (5=80-100%)
same,"POST Application SETFA, percentage damage on five-point scale",Setaria faberi (SETFA) [7]; applied at 125 g/ha,4 (4=60-79%)
same,"POST Application IPOHE, percentage damage on five-point scale",[8]; applied at 125 g/ha,2 (2=20-39%)
same,"POST Application ABUTH, percentage damage on five-point scale",[9]; applied at 125 g/ha,4 (4=60-79%)
same,"POST Application AMARE, percentage damage on five-point scale",[10]; applied at 125 g/ha,5 (5=80-100%)
CCN(C(=O)C(C)F)c1c(OC(F)F)ccc(C(=O)Nc2nnnn2C)c1Cl (stereo not shown) [Compound 1.026],"PRE Application ECHCG, percentage damage on five-point scale",[1]; applied at 125 g/ha,5 (5=80-100%)
same,"PRE Application SETFA, percentage damage on five-point scale",Setaria faberi (SETFA) [2]; applied at 125 g/ha,5 (5=80-100%)
same,"PRE Application IPOHE, percentage damage on five-point scale",[3]; applied at 125 g/ha,4 (4=60-79%)
same,"PRE Application ABUTH, percentage damage on five-point scale",[4]; applied at 125 g/ha,5 (5=80-100%)
same,"PRE Application AMARE, percentage damage on five-point scale",[5]; applied at 125 g/ha,5 (5=80-100%)
same,"POST Application ECHCG, percentage damage on five-point scale",[6]; applied at 125 g/ha,5 (5=80-100%)
same,"POST Application SETFA, percentage damage on five-point scale",Setaria faberi (SETFA) [7]; applied at 125 g/ha,4 (4=60-79%)
same,"POST Application IPOHE, percentage damage on five-point scale",[8]; applied at 125 g/ha,4 (4=60-79%)
same,"POST Application ABUTH, percentage damage on five-point scale",[9]; applied at 125 g/ha,4 (4=60-79%)
same,"POST Application AMARE, percentage damage on five-point scale",[10]; applied at 125 g/ha,4 (4=60-79%)
"COc1ccc(C(=O)Nc2nnnn2C)c(Cl)c1NC(=O)C(C)F (stereo not shown) [Compound 1.028, 2-chloro-3-(2-fluoropropanoylamino)-4-methoxy-N-(1-methyltetrazol-5-yl)benzamide]","PRE Application ECHCG, percentage damage on five-point scale",[1]; applied at 500 g/h,4 (4=60-79%)
same,"PRE Application SETFA, percentage damage on five-point scale",Setaria faberi (SETFA) [2]; applied at 500 g/h,3 (3=40-59%)
same,"PRE Application IPOHE, percentage damage on five-point scale",[3]; applied,3 (3=40-59%)
same,"PRE Application ABUTH, percentage damage on five-point scale",[4]; applied at 500 g/h,5 (5=80-100%)
same,"PRE Application AMARE, percentage damage on five-point scale",[5]; applied at 500 g/h,5 (5=80-100%)
same,"POST Application ECHCG, percentage damage on five-point scale",[6]; applied at 500 g/h,3 (3=40-59%)
same,"POST Application SETFA, percentage damage on five-point scale",Setaria faberi (SETFA) [7]; applied at 500 g/h,4 (4=60-79%)
same,"POST Application IPOHE, percentage damage on five-point scale",[8]; applied at 500 g/h,4 (4=60-79%)
same,"POST Application ABUTH, percentage damage on five-point scale",[9]; applied at 500 g/h,5 (5=80-100%)
same,"POST Application AMARE, percentage damage on five-point scale",[10]; applied at 500 g/h,5 (5=80-100%)
COc1ccc(C(=O)Nc2nnnn2C)c(Cl)c1NC(=O)C1CC1 [Compound 1.029],"PRE Application ECHCG, percentage damage on five-point scale",[1]; applied at 500 g/h,5 (5=80-100%)
same,"PRE Application SETFA, percentage damage on five-point scale",Setaria faberi (SETFA) [2]; applied at 500 g/h,5 (5=80-100%)
same,"PRE Application IPOHE, percentage damage on five-point scale",[3]; applied,4 (4=60-79%)
same,"PRE Application ABUTH, percentage damage on five-point scale",[4]; applied at 500 g/h,5 (5=80-100%)
same,"PRE Application AMARE, percentage damage on five-point scale",[5]; applied at 500 g/h,5 (5=80-100%)
same,"POST Application ECHCG, percentage damage on five-point scale",[6]; applied at 500 g/h,5 (5=80-100%)
same,"POST Application SETFA, percentage damage on five-point scale",Setaria faberi (SETFA) [7]; applied at 500 g/h,5 (5=80-100%)
same,"POST Application IPOHE, percentage damage on five-point scale",[8]; applied at 500 g/h,5 (5=80-100%)
same,"POST Application ABUTH, percentage damage on five-point scale",[9]; applied at 500 g/h,5 (5=80-100%)
same,"POST Application AMARE, percentage damage on five-point scale",[10]; applied at 500 g/h,5 (5=80-100%)
